Where a name gives a salt, the structure may show the parent alone. Read-outs that look alike come from different tables or passages of the source.
Assays:
Format in all cases: cell-based
[1] = system: Herpes simplex type 1 virus (HFEM strain); experiment: Plaque reduction test in virus-infected Vero cells
Method: (§1) Vero (African Green Monkey Kidney) cells were grown to confluence in 24 well multidishes, each well being 1.6cm in diameter. The cells were infected with Herpes simplex type 1 virus (HFEM strain) and overlaid with 0.5ml of 0.9% agarose (w/v) in maintenance medium. Test compounds prepared in maintenance medium in concentrations ranging from 100 to 0.03pg/ml in half-log dilution steps, were added in 0.5ml volume. The virus infected cultures were then incubated at 37° for 4 days before fixing in 4% formaldehyde solution and staining with carbolfuchsin.

in vitro [2] = details: african green monkey; minimum concentration of test compound which caused cytotoxicity; Vero cells, 4 days at 37°; highest concentration tested 100; read-out: MTD
in vitro [3] = details: african green monkey, vero cells
Method: as §1

[4] = system: Vero (African Green Monkey Kidney) cells; experiment: in vitro; details: minimum concentration of test compound which caused cytotoxicity; Vero cells, 4 days at 37°; highest concentration tested 100
Method: as §1

[5] = Human alphaherpesvirus 1, 96 h, concentration causing 50% reduction in number of virus plaques, HSV-1 HFEM strain, 4 days at 37°, molar units, read-out: PDD50 (the source's name)
[6] = Human alphaherpesvirus 1, 96 h, concentration causing 50% reduction in number of virus plaques, HSV-1 HFEM strain, 4 days at 37°, read-out: PDD50 (the source's name)
[7] = Human alphaherpesvirus 1, Vero, 96 h, read-out: PDD50, concentration causing 50% reduction in number of virus plaques, HSV-1 HFEM strain, 4 days at 37°
[8] = Human alphaherpesvirus 1, Vero, 96 h, read-out: PDD50, concentration causing 50% reduction in number of virus plaques, HSV-1 HFEM strain, 4 days at 37°, molar units

| SMILES | IC50 [1, 5] [nM] | IC50 [1, 6] [µg/mL] | MCC at 96 h (in vitro [3]) [µg/mL] | MCC at 96 h (in vitro [2]) [µg/mL] | IC50 [1, 7] [µg/mL] | IC50 [1, 8] [nM] | MTD [4] [µg/mL] |
| --- | --- | --- | --- | --- | --- | --- | --- |
| CCOC(=O)OC[C@H]1O[C@@H](n2cc(/C=C/Br)c(=O)[nH]c2=O)C[C@@H]1OP(=O)(O)O [Example 13, 5-(E-2-Bromovinyl)-2'-deoxy-5'-0-ethoxycarbonyluridine 3'-Phosphate Monosodium Salt] | 7500 | 3.8 |  | > 100 |  |  |  |
| O=C(OCCO)OC[C@H]1O[C@@H](n2cc(/C=C/Br)c(=O)[nH]c2=O)C[C@@H]1O [Example 26, 5-(E-2-Bromovinyl)-2'-deoxy-5'-0-(2-hydroxyethox^ycarbonyl)-uridine] | 1800 | 0.76 | > 100 |  |  |  |  |
| CCOC(=O)OC[C@H]1O[C@@H](n2cc(/C=C/Br)c(=O)[nH]c2=O)C[C@@H]1OC(=O)CCC(=O)[O-].[Na+] |  |  |  |  | 6.3 |  |  |
| CC(C)COC(=O)OC[C@H]1O[C@@H](n2cc(/C=C/Br)c(=O)[nH]c2=O)C[C@@H]1OC(=O)OCC(C)C [Example 16, 5-(E-2-Bromovinyl)-3',5'-bis-0-isobutoxycarbonyl-2'-deoxyuridine] | 800 | 0.44 | 100 |  |  |  |  |
| CC(C)(C)OC(=O)OC[C@H]1O[C@@H](n2cc(/C=C/Br)c(=O)[nH]c2=O)C[C@@H]1O [Example 18, 5-(E-2-Bromovinyl)-5'-O-t-butoxycarbonyl-2'-deoxyuridine] | 700 | 0.28 | > 100 |  |  |  |  |
| CCOC(=O)OC[C@H]1O[C@@H](n2cc(/C=C/Br)c(=O)[nH]c2=O)C[C@@H]1OP(=O)([O-])[O-].[Na+].[Na+] [Example 12, 5-(E-2-Bromovinyl)-2'-deoxy-5'-O-ethoxycarbonyluridine 3'-Phosphate Disodium Salt] |  |  |  |  | 12 | 23000 | >100 |
| CC(C)COC(=O)OC[C@H]1O[C@@H](n2cc(/C=C/Br)c(=O)[nH]c2=O)C[C@@H]1O [Example 17, 5-(E-2-Bromovinyl)-5'-O-isobutoxycarbonyl-2'-deoxyuridine] | 500 | 0.22 | > 100 |  |  |  |  |
| CC(C)OC(=O)OC[C@H]1O[C@@H](n2cc(/C=C/Br)c(=O)[nH]c2=O)C[C@@H]1O [Example 25, 5-(E-2-Bromovinyl)-2'-deoxy-5'-0-isopropoxycarbonyluridine] | 2100 | 0.88 | > 100 |  |  |  |  |
| CCCCC(=O)O[C@H]1C[C@H](n2cc(/C=C/Br)c(=O)[nH]c2=O)O[C@@H]1COC(=O)OCC [Example 9, 5-(E-2-Bromovinyl)-2'-deoxy-5'-O-ethoxyarbonyl-3'-O-valeryluridine] | 3000 | 1.5 | > 100 |  |  |  |  |
| CCOC(=O)OC[C@H]1O[C@@H](n2cc(/C=C/Br)c(=O)[nH]c2=O)C[C@@H]1OC(=O)CCC(=O)[O-].[Na+] [Sodium Salt] |  |  |  | > 100 |  | 12000 |  |
| CC(C)(C)OC(=O)OC[C@H]1O[C@@H](n2cc(/C=C/Br)c(=O)[nH]c2=O)C[C@@H]1OC(=O)OC(C)(C)C [Example 19, 5-(E-2-Bromovinyl)-3',5'-bis-O-t-butoxycarbonyl-2^1-deoxyuridine] | 3800 | 2 | > 100 |  |  |  |  |
| CC(C)(C)OC(=O)O[C@H]1C[C@H](n2cc(/C=C/Br)c(=O)[nH]c2=O)O[C@@H]1CO [Example 20, 5-(E-2-Bromovinyl)-3'-O-t-butoxycarbonyl-2^1-deoxyuridine] | 400 | 0.18 | > 100 |  |  |  |  |
| CCCOC(=O)OC[C@H]1O[C@@H](n2cc(/C=C/Br)c(=O)[nH]c2=O)C[C@@H]1O [Example 14, 5-(E-2-Bromovinyl)-2'-deoxy-5'-0-propoxycarbcnyluridine] | 900 | 0.39 | > 100 |  |  |  |  |
| CCCCOC(=O)OC[C@H]1O[C@@H](n2cc(/C=C/Br)c(=O)[nH]c2=O)C[C@@H]1O [Example 15, 5-(E-2-Bromovinyl)-5'-0-n-butoxycarbonyl-2'-deoxyuridine] | 600 | 0.25 | > 100 |  |  |  |  |
| O=C(OCc1ccccc1)OC[C@H]1O[C@@H](n2cc(/C=C/Br)c(=O)[nH]c2=O)C[C@@H]1O [Example 22, 5'-O-Benzyloxycycarbonyl-5-(E-2-bromovinyl)-2'-deoxyuridine] | 100 | 0.05 | > 100 |  |  |  |  |
| C=Cc1cn([C@H]2C[C@H](O)[C@@H](COC(=O)OCC)O2)c(=O)[nH]c1=O [Example 27, 2^1-Deoxy-5^1-O-ethoxycarbonyl-5-vinyluridine] | 4600 | 1.5 | > 100 |  |  |  |  |
| CCOC(=O)n1c(=O)c(/C=C/Br)cn([C@H]2C[C@H](O)[C@@H](CO)O2)c1=O [Example 7, 5-(E-2-Bromovinyl)-2'-deoxy-3-ethoxycarbonyluridine] | 12300 | 5 |  | > 100 |  |  |  |

The next lines start with results.

| IC50 [1, 5] [nM] | IC50 [1, 6] [µg/mL] | MCC at 96 h (in vitro [3]) [µg/mL] | SMILES | MCC at 96 h (in vitro [2]) [µg/mL] | IC50 [1, 7] [µg/mL] | IC50 [1, 8] [nM] | MTD [4] [µg/mL] |
| --- | --- | --- | --- | --- | --- | --- | --- |
| 700 | 0.28 | > 100 | CCOC(=O)OC[C@H]1O[C@@H](n2cc(/C=C/Br)c(=O)[nH]c2=O)C[C@@H]1O [Example 5, 5-(E-2-Bromovinyl)-2'-deoxy-5'-0-ethoxycarbonyluridine] |  |  |  |  |
| 6700 | 3.3 | > 100 | CCCCC(=O)n1c(=O)c(/C=C/Br)cn([C@H]2C[C@H](O)[C@@H](COC(=O)OCC)O2)c1=O [Example 10, 5-(E-2-Bromovinyl)-2'-deoxy-5'-0-ethoxycarbonyl-3-valeryl-uridine] |  |  |  |  |
| 400 | 0.18 | > 100 | O=C(OC[C@H]1O[C@@H](n2cc(/C=C/Br)c(=O)[nH]c2=O)C[C@@H]1O)Oc1ccccc1 [Example 23, 5-(E-2-Bromovinyl)-5'-0-phenoxycarbonyl-2'-deoxyuridine] |  |  |  |  |
| 1100 | 0.43 | > 100 | CCOC(=O)O[C@H]1C[C@H](n2cc(/C=C/Br)c(=O)[nH]c2=O)O[C@@H]1CO [Example 6, 5-(E-2-Bromovinyl)-2'-deoxy-3'-0-ethoxycarbonyluridine] |  |  |  |  |
| 1200 | 0.6 | 100 | O=C(OC[C@H]1O[C@@H](n2cc(/C=C/Br)c(=O)[nH]c2=O)C[C@@H]1O)Oc1ccc([N+](=O)[O-])cc1 [Example 24, 5-(E-2-Bromovinyl)-2'-deoxy-5'-O-(p-nitrophenoxycarbonyl)uridine] |  |  |  |  |
| 11800 | 5.3 | > 100 | COC(=O)OC[C@H]1O[C@@H](n2cc(/C=C/Br)c(=O)[nH]c2=O)C[C@@H]1OC(=O)OC [Example 1, 5-(E-2-Bromovinyl)-2'-deoxy-3',5'-bis-0-methoxycarbonyl-uridine] |  |  |  |  |
| 1900 | 0.74 | > 100 | COC(=O)O[C@H]1C[C@H](n2cc(/C=C/Br)c(=O)[nH]c2=O)O[C@@H]1CO [Example 2, 5-(E-2-Bromovinyl)-2'-deoxy-3'-0-methoxycarbonyluridine] |  |  |  |  |
| 1700 | 0.72 | > 100 | C=CCOC(=O)OC[C@H]1O[C@@H](n2cc(/C=C/Br)c(=O)[nH]c2=O)C[C@@H]1O [Example 21, 5'-0-Allyloxycarbonyl-5-(E-2-bromovinyl)-2'-deoxyuridine] |  |  |  |  |
| 3000 | 1.7 | > 100 | CCCCC(=O)O[C@H]1C[C@H](n2cc(/C=C/Br)c(=O)n(C(=O)CCCC)c2=O)O[C@@H]1COC(=O)OCC [Example 8, 5-(E-2-Bromovinyl)-2'-deoxy-5'-0-ethoxycarbonyl-3,3'-0-bisvaleryluridine] |  |  |  |  |
| 2300 | 1.1 | > 100 | CCOC(=O)OC[C@H]1O[C@@H](n2cc(/C=C/Br)c(=O)[nH]c2=O)C[C@@H]1OC(=O)OCC [Example 4, 5-(E-2-Bromovinyl)-2'-deoxy-3',5'-bis-0-ethoxycarbonyluridine] |  |  |  |  |
| 3800 | 1.5 | > 100 | COC(=O)OC[C@H]1O[C@@H](n2cc(/C=C/Br)c(=O)[nH]c2=O)C[C@@H]1O [Example 3, 5-(E-2-Bromovinyl)-2'-deoxy-5'-O-methoxycarbonyluridine] |  |  |  |  |
